Source: patent publication US12612408B2, “Pyrazolone-fused pyrimidine compound, preparation method for same and applications thereof” (SHANGHAI PHARMACEUTICALS HOLDING CO., LTD., priority 2019, dated 2026)

Legend:
[1] = Bioavailability test in vivo in cynomolgus monkey (pharmacokinetics, IV and PO); conditions: cynomolgus monkeys
Experimental: Twelve male Non-Naïve cynomolgus monkeys were purchased from GuangxiGuidong Primate Development Experiment Co. LTD.
(§1) 54.31 mg of I-8-1 was accurately weighed, and 1.08 mL of DMSO was added, then the mixture was vortexed for 1 min, sonicated for 15 min, and then diluted to 36 mL according to the ratio of 10% HP-β-cyclodextrin (prepared by normal saline): PEG=8:2, vortexed for 1 min. A colorless clarified administration solution (the pH value was about 7) at a concentration of 1.5 mg/mL was prepared for intravenous administration to Group 1.
300.9 mg of I-8-1 was accurately weighed, and 75 mL of 0.5% CMC-Na was added, the mixture was fully ground and stirred for 5 min. A white suspension (the pH value was about 7) at a concentration of 4 mg/mL was prepared for oral administration to Group 2.
as §1, with “54.05 mg” for “54.31 mg”, “of AZD1775” for “of I-8-1”, “then he” for “then the”, “of 10%-D-cyclodextrin” for “of 10% HP-β-cyclodextrin”, “A yellow” for “A colorless”, “Group 3.” for “Group 1.”
300.7 mg of AZD1775 was accurately weighed, and 75 mL of 0.5% CMC-Na was added, the mixture was fully ground and stirred for 5 min. A yellow suspension (the pH value was about 7) at a concentration of 4 mg/mL was prepared for oral administration to Group 4.
Before administration, all animals were fasted overnight (approximately 12 hours) and fed as required and administered according to the table below.
Intravenous group: before administration (0 h), 0.033 h, 0.083 h, 0.25 h, 0.5 h, 1 h, 1.5 h, 2 h, 4 h, 6 h, 8 h, 12 h, 24 h after administration.
Oral group: before administration (0 h), 0.083 h, 0.25 h, 0.5 h, […], 2 h, 4 h, 6 h, 8 h, 12 h, 24 h after administration.
Blood samples were collected by puncture through lower limb vein or other suitable blood vessels at 1 mL/time point (3 mL of blood samples were collected from each animal before administration), anticoagulated with heparin sodium, and placed on ice after collection. Plasma was separated at 2200 g/min, 10 min, 2-8° C., plasma samples were stored in a −80° C. refrigerator before being transferred to the client. Plasma samples are stored in dry ice and transferred to the client. The final treatment of the sample will be recorded in the experimental record.
300 μL of acetonitrile was added to 50 μL of plasma samples containing internal standard (Propranolol, 25 ng/mL) to precipitate protein, vortexed for 10 min, centrifuged at 6000 g for 10 min, after I-8-1&AZD1775 intravenous injection group was diluted 10 times with internal standard acetonitrile (Propranolol, 25 ng/mL) at the time point before 1 hour, the remaining supernatant was not diluted, centrifuged again at 6000 g at 4° C. for 10 min, and the supernatant was taken and injected into a 96 well plate.
(§2) Dose; peak concentration: Cmax; peak time: Tmax; area under the drug-time curve from AUClast 0 to time t; half-life: T1/2; mean retention time: MRT; clearance: Cl; apparent distribution volume: Vz; steady-state distributed volume: Vss; absolute bioavailability: F.
The pharmacokinetic parameters of the compound in cynomolgus monkeys after intravenous injection or intragastric administration were shown in Table 6 below.

[2] = Bioavailability test in vivo in mice (pharmacokinetics, iv and intragastric); parameters: species or system ICR mice
Experimental: 404.6 μL of DMSO was added to the compound powder of the present disclosure until the compound was completely dissolved, and 50 mg/mL mother liquor was prepared in a clarified state.
The compound of the present disclosure: 24 μL of mother liquor was accurately measured, diluted to 4 mL according to the ratio of 0.9% normal saline:PEG400=8:2, the preparation concentration was 0.3 mg/mL, the solution was in a clarified state, and it was used as intravenous administration solution. In addition, 80 μL mother liquor was accurately measured, and 0.5% CMC-Na was added to 8 mL to grind it into a uniform suspension with a concentration of 0.5 mg/mL, which was used as intragastric administration solution.
(§3) Intravenous group: 24 ICR mice, 20±2 g, were given the intravenous administration solution of the compound of the present disclosure by intravenous injection, with the volume of 10 mL/kg, with the dose of 3 mg/kg, the blood was taken from the fundus venous plexus of mice, 2, 5, 15, 30, 60, 90, 120, 240, 360, 480, 600 and 1440 minutes before and after administration.
as §3, with “Intragastric group:” for “Intravenous group:”, “the intragastric” for “the intravenous”, “by intragastric” for “by intravenous”, “of 20” for “of 10”, “of 10” for “of 3”, “mice,” for “mice, 2,”
Blood sample was centrifuged at 8000 rpm for 5 min, and the plasma was stored in a centrifuge tube at −20° C. for later use.
300 μL of acetonitrile containing internal standard (Propranolol, 25 ng/mL) was added to 50 μL of plasma samples to precipitate protein, vortexed for 10 min, 6000 g, 4° C., centrifuged for 10 min; the supernatant before intravenous injection for 1 hour was taken, diluted 10 times with acetonitrile containing internal standard, the rest supernatant was kept undiluted, centrifuged for 10 min again at 6000 g, 4° C., and the supernatant was taken and then injected into a 96-well plate.
as §2
The pharmacokinetic parameters of the compound in mice after intravenous injection or intragastric administration were shown in Table 4 and Table 5 below.

[3] = male, cynomolgus monkey, plasma, iv, 3 mg/kg
[4] = male, cynomolgus monkey, plasma, po, 20 mg/kg, fasted
[5] = ICR, mouse, plasma, iv, 3 mg/kg
[6] = ICR, mouse, plasma, po (intragastric), 10 mg/kg

AUCextra ([1]; iv, 3 mg/kg): 16.11 ± 9.34 (h)*(ng/mL)
AUClast ([1]; iv, 3 mg/kg): 957.6 ± 126.3 (h)*(ng/mL)
AUCtot ([1]; iv, 3 mg/kg): 973.8 ± 131.4 (h)*(ng/mL)
thalf ([1]; iv, 3 mg/kg): 2.05 ± 1.24 h
AUCextra ([1]; po, 20 mg/kg, fasted): 187.03 ± 166.00 (h)*(ng/mL)
AUClast ([1]; po, 20 mg/kg, fasted): 6548 ± 3043 (h)*(ng/mL)
AUCtot ([1]; po, 20 mg/kg, fasted): 6735 ± 3201 (h)*(ng/mL)
thalf ([1]; po, 20 mg/kg, fasted): 3.71 ± 0.72 h
Vd ([1]; male, cynomolgus monkey, plasma, iv, 3 mg/kg, iv, 3 mg/kg, read-out: Vss): 9.67 ± 1.32 L/kg
Vd ([1]; male, cynomolgus monkey, plasma, iv, 3 mg/kg, iv, 3 mg/kg, read-out: Vz): 8.78 ± 4.22 L/kg
Cmax [1, 3]: 838 ± 190 ng/mL
MRT [1, 3]: 3.17 ± 0.82 h
Tmax [1, 3]: 0.03 h
clearance [1, 3]: 52 mL/min/kg
bioavailability ([1]; male, cynomolgus monkey, plasma, po 20 mg/kg vs iv 3 mg/kg, read-out: BA (absolute bioavailability)): 103%
Cmax [1, 4]: 721 ± 260 ng/mL
MRT [1, 4]: 7.91 ± 2 h
Tmax [1, 4]: 4.5 ± 2.6 h
Cmax [2, 5]: 644 ± 132 ng/mL
MRT [2, 5]: 1.11 ± 0.08 h
Tmax [2, 5]: 0.03 h
clearance [2, 5]: 155 mL/min/kg
half-life [2, 5]: 1.22 ± 0.1 h
Vd ([2]; ICR, mouse, plasma, iv, 3 mg/kg, iv, 3 mg/kg, read-out: Vss): 10.3 ± 0.86 L/kg
Vd ([2]; ICR, mouse, plasma, iv, 3 mg/kg, iv, 3 mg/kg, read-out: Vz): 16.3 ± 2.48 L/kg
bioavailability ([2]; ICR, mouse, plasma, po 10 mg/kg vs iv 3 mg/kg, read-out: F (absolute bioavailability)): 60.3%
Cmax [2, 6]: 58.1 ± 7.09 ng/mL
MRT [2, 6]: 3.47 ± 1.22 h
Tmax [2, 6]: 1.67 ± 0.29 h
half-life [2, 6]: 1.57 ± 0.39 h
AUClast ([2]; iv, 3 mg/kg): 317.5 ± 34.41 (h) (ng/mL)
AUClast ([2]; po (intragastric), 10 mg/kg): 637.9 ± 302.3 (h) (ng/mL)
Compound: C=CCn1c(=O)c2cnc(Nc3ccc(C4CCC(N5CCC5)CC4)cc3)nc2n1-c1cccc(C(C)(C)O)n1 (single isomer, unassigned) [Compound I-8-1]
